Data from the NIST ThermoML archive (doi:10.1016/j.jct.2010.04.013).

Test: mn = molality of the nth substance listed, in mol/kg
Details: 101 kPa, Liquid; for mass density: Vibrating tube method; for speed of sound: Pulse-echo method

O=S(=O)([O-])C(F)(F)F.O=S(=O)([O-])C(F)(F)F.[Be+2] [beryllium 1,1,1-trifluoromethanesulfonate] + CO
Details | mass density, 283.15 K [kg/m3] | mass density, 288.15 K [kg/m3] | mass density, 293.15 K [kg/m3] | mass density, 298.15 K [kg/m3] | mass density, 303.15 K [kg/m3] | mass density, 308.15 K [kg/m3] | mass density, 313.15 K [kg/m3] | speed of sound, 298.15 K [m/s]
m1 = 0.05456 | 809.901 | 805.251 | 800.58 | 795.899 | 791.207 | 786.489 | 781.742 | 1105.4
m1 = 0.06745 | 812.098 | 807.453 | 802.786 | 798.111 | 793.424 | 788.711 | 783.973 | 1106.2
m1 = 0.08472 | 815.041 | 810.402 | 805.745 | 801.074 | 796.384 | 791.686 | 786.956 | 1107.2
m1 = 0.1077 | 818.969 | 814.336 | 809.691 | 805.032 | 800.359 | 795.664 | 790.942 | 1108.5
m1 = 0.1249 | 821.918 | 817.294 | 812.65 | 807.996 | 803.329 | 798.644 | 793.931 | 1109.5
m1 = 0.1421 | 824.885 | 820.267 | 815.629 | 810.983 | 806.316 | 801.638 | 796.936 | 1110.3
m1 = 0.1594 | 827.866 | 823.252 | 818.621 | 813.979 | 809.325 | 804.652 | 799.953 | 1111.1
m1 = 0.177 | 830.948 | 826.34 | 821.715 | 817.077 | 812.425 | 807.764 | 803.073 | 1111.9

O=S(=O)([O-])C(F)(F)F.O=S(=O)([O-])C(F)(F)F.[Be+2] [beryllium 1,1,1-trifluoromethanesulfonate] + C[S+](C)[O-]
Details | mass density, 293.15 K [kg/m3] | mass density, 298.15 K [kg/m3] | mass density, 303.15 K [kg/m3] | mass density, 313.15 K [kg/m3] | mass density, 323.15 K [kg/m3] | mass density, 333.15 K [kg/m3] | speed of sound, 298.15 K [m/s]
m1 = 0.01855 | 1103.22 | 1098.21 | 1093.19 | 1083.18 | 1073.16 | 1063.14 | –
m1 = 0.0259 | 1104.42 | 1099.41 | 1094.4 | 1084.39 | 1074.38 | 1064.37 | 1484.1
m1 = 0.03349 | 1105.65 | 1100.64 | 1095.64 | 1085.64 | 1075.64 | 1065.64 | 1484.1
m1 = 0.0433 | 1107.25 | 1102.25 | 1097.25 | 1087.27 | 1077.27 | 1067.29 | 1484.1
m1 = 0.0531 | 1108.84 | 1103.84 | 1098.85 | 1088.88 | 1078.9 | 1068.92 | 1484.1
m1 = 0.06815 | 1111.3 | 1106.31 | 1101.33 | 1091.37 | 1081.41 | 1071.46 | 1484.1
m1 = 0.08651 | 1114.3 | 1109.32 | 1104.35 | 1094.41 | 1084.48 | 1074.55 | 1484.1
m1 = 0.1051 | 1117.36 | 1112.4 | 1107.44 | 1097.52 | 1087.61 | 1077.69 | 1484.1
m1 = 0.1237 | 1120.43 | 1115.48 | 1110.52 | 1100.63 | 1090.75 | 1080.86 | 1484.1
m1 = 0.1446 | 1123.89 | 1118.95 | 1114.01 | 1104.14 | 1094.27 | 1084.41 | 1484.1
m1 = 0.1621 | 1126.82 | 1121.88 | 1116.95 | 1107.09 | 1097.24 | 1087.39 | 1484.1
